This is an account of results in patent US20150310826A1, “DISPLAY DEVICE AND PHOTOTHERAPY METHOD USING THE SAME” (Samsung Display Co., Ltd., priority 2014, published 2015).

One assay relates to B16F10 melanocyte. The assay is described as follows: Suppression of generation of melanin to the B16F10 melanocyte. The class given is cell-based, mouse. Conditions: 72 hours; red light 20 μW/cm^2; absorbance at 405 nm. The protocol: The B16F10 melanocyte is a cell strain derived from a mouse, and is a cell secreting a black pigment that is called melanin. The B16F10 melanocyte used in the present Experimental Example was distributed from ATCC (American Type Culture Collection™), and used.
The B16F10 melanocyte was divided in the 2×10^6 concentration for each well on the 6-well plate, attached, and cultivated by irradiating red light in the culture medium of Experimental Example 1 for 72 hours. After cultivation for 72 hours, the cells were separated by trypsin-EDTA (ethylenediaminetetraacetic acid), the number of cells was measured, and centrifugation was performed to collect the cells. Quantification of melanin in the cell was performed by modifying the Lotan's method. […] Melanin extracted by adding 1N NaOH (10% dimethyl sulfoxide (DMSO)) to the filtrate of the cell obtained by centrifugation was dissolved, absorbance of melanin was measured by the microplate reader at 405 nm, and melanin was quantified to measure the melanin generation hindrance ratio (%) of the sample. […]
The melanin generation hindrance ratio (%) of the B16F10 melanocyte was calculated by the following Equation 4, and the result is described in the following Table 4. […]

The subject of assay [1] is procollagen type IC-peptide (PICP). The assay is described as follows: Improvement of synthesis of collagen (PICP) in fibroblast. The class given is cell-based, human. To be noted: red light 47.5 μW/cm^2 for 24 hours or 72 hours; TGF-β 10 ng/ml. The protocol:
The fibroblast that was the human normal […] cell was inoculated on the 48-well microplate so that the number of cells was 1×10^6 for each well, cultivated in the DMEM medium for 24 hours, and cultivated by irradiating red light in a predetermined quantity for one day and three days in the culture medium of Experimental Example 1. In order to perform the comparative experiment, TGF-β (10 ng/ml) known to have the collagen synthesis improvement effect was used as the positive control group, and cultivation was further performed for 48 hours in the culture medium having no red light irradiation function to use the resulting fibroblast as the control group.
After cultivation, the supernatant liquid of each well was collected to measure the amount of procollagen type IC-peptide (PICP) by using the collagen kit (Takara™, Japan) and thus measure the amount of synthesized collagen. The collagen biosynthesis increase ratio (%) was calculated according to the following Equation 3, and the result is described in the following Table 3.
Collagen biosynthesis increase ratio(%)=(Amount of collagen of the experimental group/[…])×100 (Equation 3)

In a further assay the test system is MMP-1. The assay is described as follows: Suppression of generation of collagenase MMP-1 in fibroblast. The class given is cell-based, human. To be noted: fibroblast supernatant; three days; red light 47.5 μW/cm^2; TGF-β 10 ng/ml. The protocol:
(§1) The fibroblast (Korean Cell Line Bank, Korean) that was the human normal skin cell was inoculated on the 48-well microplate (Nunc™, Denmark) so that the number of cells was 1×10^6 for each well, cultivated in the DMEM medium (Sigma™, USA) under the condition of 37° C. for 24 hours, and cultivated by irradiating red light for three days in the culture medium of Experimental Example 1. In order to perform the comparative experiment, red light having the similar wavelength was irradiated for three days to perform cultivation, and TGF-β (10 ng/ml) known to have the effect of suppressing generation of collagenase MMP-1,2 was used as the positive control group. Cultivation was further performed for 48 hours in the culture medium having no light irradiation function to use the resulting fibroblast as the control group.
(§2) After cultivation, the supernatant liquid of each well was collected to measure the amount (ng/ml) of newly synthesized MMP-1,2 by using the MMP-1,2 analysis kit (Amersham™, USA), the MMP generation suppression ratio (%) was calculated according to the following Equation 2, and the result is described in the following Table 2.
(§3) MMP generation rate(%)=(Amount of MMP of the experimental group/Amount of MMP of the control group)×100 (Equation 2)

For the next assay, the system named is HaCaT keratinocyte. The assay is described as follows: Cell regeneration, MTT assay on HaCaT keratinocyte. Conditions: three days cultivation, red light 47.5 μW/cm^2, TGF-β 10 ng/ml. The class given is cell-based. The protocol: On the 24-well plate, the HaCaT keratinocyte (German Cancer Research Institute, Germany) was inoculated into the DMEM (Dulbecco™ Modified Eagle′ Medium) to which the 10% FBS (fetal bovine serum) was added in the density of 2×10^5 cells/well, and cultivated for one day in the humidified culture medium of 37° C. and 5% CO2. After exchanging with the serum-free DMEM, red light was irradiated for three days in the culture medium in which the aforementioned display device was installed to perform cultivation. In order to perform the comparative experiment, red light having the similar wavelength was irradiated for three days to perform cultivation, and TGF-β (transforming growth factor beta) (10 ng/ml), which is the material known to have a cell regeneration effect, was used as the positive control group. Further, cultivation was performed for three days in the culture medium having no light irradiation function to use the resulting keratinocyte as the control group. The degrees of generation of the cell were compared and evaluated by using the MTT (Microculture Tetrazolium) assay method, and the experimental result is described in the following Table 1.
In general, regeneration of the skin cell is measured by the activation rate of the cell, and the activation rate of the cell is proportional to the absorbance (at 570 nm) in Table 1. […]

For another assay, the system named is MMP-2. The experiment in a line: Suppression of generation of collagenase MMP-2 in fibroblast. The class given is cell-based, human. Conditions: fibroblast supernatant; three days; red light 47.5 μW/cm^2; TGF-β 10 ng/ml. The protocol: as §1, §2, §3
In assay [2] the test system is proinflammatory cytokine (1L-1α). The experiment in a line: Suppression of proinflammatory cytokine expression by irradiation of ultraviolet rays (ELISA). The class given is cell-based, human. Conditions: after 10 mJ/cm^2 ultraviolet ray B; red light for 72 hours at 5 or 47.5 μW/cm^2. The protocol:
5×10^4 keratinocytes separated from the human epidermal tissue were put at a time on the 24-well test plate, and attached for 24 hours. Each well was washed by the PBS once, and 500 μl of the PBS was put on each well. After 10 mJ/cm^2 of ultraviolet rays were irradiated on the keratinocytes by using the ultraviolet ray B lamp, the PBS was taken out, and 350 μl of the cell cultivation medium (DMEM to which the […] was not added) was added. In addition, red light was irradiated in the culture medium of Experimental Example 1 for 72 hours to perform cultivation. 150 μl of cultivation supernatant was sampled to quantify proinflammatory cytokine (1L-1α) and thus judge the expression suppression effect of proinflammatory cytokine. The amount of proinflammatory cytokine was quantified by using the enzyme-linked immunosorbent assay, and ketoprofen known as the proinflammatory cytokine suppression material was used as the positive control group. The expression suppression ratio (%) of proinflammatory cytokine was calculated by the following Equation 7, and the result is described in the following Table 6.
Expression suppression ratio of […]

With `OC[C@H]1O[C@@H](Oc2ccc(O)cc2)[C@H](O)[C@@H](O)[C@@H]1O` [Comparative Example 11, arbutin], the “Melanin generation hindrance ratio (%)” value with B16F10 melanocyte was found to be 52.3%.
With “TGF-β (transforming growth factor beta) [compound 3]”, in assay [1], the “Collagen biosynthesis increase ratio (%)” value is recorded as 24.7%. Besides, the “MMP-1 generation suppression ratio (%)” value with MMP-1 was 75.1%. The “Absorbance (at 570 nm)” value in the assay with HaCaT keratinocyte was 1.423. Further, in the assay with MMP-2, the “MMP-2 generation suppression ratio (%)” value is on record as 76.2%.
Consider `Oc1ccc(O)cc1` [Comparative Example 10, hydroquinone], for which the “Melanin generation hindrance ratio (%)” value with B16F10 melanocyte was found to be 73.1%.
With `CC(C(=O)O)c1cccc(C(=O)c2ccccc2)c1` (stereo not shown) [compound 12, ketoprofen], the “Expression suppression ratio of proinflammatory cytokine (%)” value in assay [2] is reported as 41.1%.
